From patent publication US8048638B2, “Biomarkers of liver injury” (priority 2005, dated 2011)

Key:
Rats [1] = assay: Plasma ASS and ALT accumulation after carbon tetrachloride injection (chlorinated hydrocarbon liver injury); format: in vivo, rat; details: for Plasma ASS increase relative to control (FIG. 30A): rat model; for Plasma ALT accumulation / Plasma ASS increase compared to controls: rats; for Plasma ASS increase compared to controls: 0.5 ml/kg CCL4 in vegetable oil
Protocol: Rats (n=6) were injected with 0.5 ml/kg of carbon tetrachloride (CCL4) in vegetable oil. Plasma arginosuccinate synthetase (ASS) and alanine transaminase (ALT) accumulation was measured 1 hr and 24 hr after injection. ASS increased over 15-fold compared to controls after 1 hr and over 50-fold compared to controls after 24 hr (p<0.0001), as shown in FIG. 30A.

Rats [2] = details: Western blot
Protocol: The analysis shown in Table 1, is performed by Western blot using antibody available through various sources. Typically, 25 μg protein are loaded with two identical sets of 5 samples, separated in 4-20% polyacrylamide gel mini-slabs, and transferred onto PVDF membrane. The membrane is cut in 2 pieces, blocked, probed with two different antibodies, visualized using ECL Plus Kit (Pierce, Inc) and scanned. The membranes are stripped using stripping buffer and re-probed with other two antibody. After visualizing the bands with EDCL Plus Kit and scanning, membranes are stripped again, probed with aII-spectrin antibody and developed using alkaline phosphatase detection method. For accurate assessment of molecular mass of developed proteins, two sets of protein standards are added and developed simultaneously (Magic Markers, Invitrogen, Inc).
Blood is collected from rat heart at the end of experimental procedures. Plasma is obtained from K-EDTA preserved blood by centrifugation. 20 μl of plasma or serum is mixed with 180 μl of RIPA buffer (with proteases inhibitors), vortexed, incubated on ice for 30 min and centrifuged. Supernatants are removed, aliquots mixed with sample buffer 1:1, heated and loaded onto gel.

Rats [3] = assay: Serum ASS, CPS-1, SULT2A1 and ALT levels after repeated MDMA injections (Ecstasy liver injury); format: in vivo, rat; details: for Serum ASS compared to control serum levels / Serum SULT2A1 compared to control serum levels: i.p.; for Serum ASS compared to control serum levels: 10 mg/kg injections at 1.5 hr intervals
Protocol: Serum arginosuccinate synthetase (ASS), carbamoylphosphate synthase-1 (CPS-1) and sulfur transferase isoform A1 (SULT2A1) levels were measured after repeated injections of 10 mg/kg of methylenedioxyacetamine (MDMA) at 1.5 hr intervals.

## ClC(Cl)(Cl)Cl [carbon tetrachloride]
Rats [1]; 1 hr after injection
  Plasma ASS increase relative to control (FIG. 30A): 15 times
  Plasma ASS increase compared to controls: over 15 fold
Rats [1]; 24 hr post injection
  Plasma ASS increase relative to control (FIG. 30A): 50 times
Rats [1]; 0.5 ml/kg CCL4, 1 hr after injection
  Plasma ALT accumulation: did not increase significantly
Rats [1]; 0.5 ml/kg CCL4, 24 hr after injection, p=0.041
  Plasma ALT accumulation: significant increase
Rats [1]; 24 hr after injection, p<0.0001
  Plasma ASS increase compared to controls: over 50 fold

## CCO [alcohol]
Rats [2]; chronic alcohol rats
  ALT in plasma: increased
Rats [2]; rats chronically treated with alcohol
  GST-BB in plasma: significant increase
Rats [2]; rats with chronic alcoholic administration
  Intact ASS protein (46 kDa) in plasma: absent

## CNC(C)Cc1ccc2c(c1)OCO2 (stereo not drawn) [MDMA, methylenedioxyacetamine]
Rats [3]; total 20 mg/kg, p<0.01
  Serum ASS compared to control serum levels: significant increase
Rats [3]; total 40 mg/kg, p<0.001
  Serum ASS compared to control serum levels: significant increase
Rats [3]; total 20 mg/kg, p<0.001
  Serum SULT2A1 compared to control serum levels: significant increase
Rats [3]; total 40 mg/kg, p<0.0001
  Serum SULT2A1 compared to control serum levels: significant increase
Rats [3]; repeated i.p. injection, total 40 mg/kg, 24 hr after last injection, PAGE
  Serum carbamoylphosphate synthase-1 (CPS-1) levels: increased levels
Rats [3]; repeated i.p. injections of 10 mg/kg
  Alanine transferase (ALT): No increase
